Consider seven compounds from patent publication US20120003655A1, “IDENTIFICATION OF NEUROPROTECTIVE AGENTS USING PRO-INFLAMMATORY HUMAN GLIAL CELLS” (The Salk Institute for Biological Studies, priority 2008, published 2012).

Experiment [1] has as its system HESC-derived motor neurons co-cultured with SOD1^G37R astrocytes. The experiment in a line: Co-culture of HESC-derived motor neurons with SOD1 astrocytes, quantification of ChAT-positive cells. In kind it is cell-based, human. As to conditions: astrocytes pre-treated 48 hours with apocynin, co-culture 3 more weeks. On the procedure:
Culture conditions and differentiation of HESC. The HUES cells lines used in this study were HUES9 (Douglas Melton-WiCell) and Cythera 203 (Novocell Inc. San Diego, Calif.). The HESC were differentiated in vitro in motor neurons, adapting the protocol previously described elsewhere (Li et al., 2005). Briefly, the cells were manually dissociated to form embryoid bodies (EBs) and cultured in suspension for 5-6 days. The EBs were then plated in laminin/poli-ornithin coated plates in the presence of a neural induction medium consisting of F12/DMEM (Invitrogen, Carlsbad, Calif.), N2 supplement and 1 μM retinoic acid (RA). The cells started to organize into neural tube-like rosettes and, after 7-8 days in culture, sonic hedgehog (SHH, 500 ng/ml, R&D Systems) and cAMP (1 μM) were added to the culture media for 1 more week. The rosettes were then manually selected using a 10× magnifier (Zeiss) and gently dissociated (by pipetting up and down in a Hanks' enzyme free cell dissociation buffer-Invitrogene). After dissociation, rosettes were pelleted at 1,000 rpm and re-plated either on laminin/poli-ornithine coated coverslips (for direct differentiation) or on top of astrocyte feeder layers for the co-culture experiments. […]

Experiment [2] relates to SOD^G37R mutated astrocyte cultures. Kind of experiment: Detection of ROS production in SOD1 G37R astrocytes after anti-oxidant treatment. In kind it is cell-based, human. Conditions: 48 hours treatment, vs vehicle (EtOH or DMSO); apocynin 300 μM, alpha lipoic acid 50 μg/mL, epicatechin 10 μM, luteolin 5 μM, resveratrol 5 μM. As for the experimental part:
Primary astrocyte culture. Human primary astrocytes (HA1800) were obtained from ScienCell Research Laboratories™ (Carlsbad, Calif.) and were cultured according to the providers' guidelines. Briefly, the astrocytes were isolated from fetal human brain (cerebral cortex) and cultured for no more than 15 passages in astrocyte media (AM 1801). The infections were performed in 80% confluent T75 flasks followed by incubation with the lentivirus expressing either the wild type of SOD1 (LV-SOD1^wT) or the mutated form of SOD1 (LV-SOD1^G37R).
Detection of ROS production. Detection of total cellular ROS was performed using the Image-iT LIVE Green reactive Oxygen Species Detection Kit, according to the manufacturer's directions (Molecular Probes, Invitrogen). Briefly, this assay is based on the principle that the live cell permeable compound, carboxy-H2DCFDA, emits a bright green fluorescence when it is oxidized in the presence of ROS. The quantification of the ROS production was addressed in 2 ways: 1) counting the number of fluorescent cells and 2) measuring the intensity of the fluorescence emitted by the cells. The relative fluorescence intensity (arbitrary units ranging from 0 to 255, or black to white) was measured in randomly selected fields for each treatment and was analyzed and quantified using ImageProPlus software.
Anti-oxidants treatment. Anti-oxidants stock solutions were diluted in astrocyte media and directly applied to astrocyte monolayers. The cultures were treated for 48 hours prior to reactive species of oxygen (ROS) detection. The compounds used in the experiment were epicatechin (E4018 Sigma Aldrich, 10 μM), luteolin (L9283 Sigma-Aldrich, 5 μM), resveratrol (R5010Sigma-Aldrich, 5 μM), apocynin (178385 Calbiochem, 300 μM), alpha lipoic acid (T5625, Sigma-Aldrich, 50 μg/mL). For neuronal co-cultures, the astrocytes were pre-treated for 48 hours with apocynin and the rosettes were plated on top of them. The co-cultures were carried for 3 more weeks and the medium containing apocynin was replaced three more times during the co-culture period.
A total of five compounds and their respective vehicles (ethanol (EtOH) or DMSO) were tested in SOD^G37R mutated astrocyte cultures to address their anti-oxidant potential (FIG. 4A).

For experiment [3], the system named is primary human astrocytes. The experiment in a line: qPCR of IL1b-induced genes in primary human astrocytes. In kind it is cell-based. Conditions: 1 μM for 1 hour, then 10 ng/ml IL1b 6 hours; qPCR normalized against HPRT. As for the experimental part: (§1) FIGS. 31A-F show indazol-estrogen suppression of the inflammation in human primary microglia and astrocytes. Primary human microglia (FIGS. 31A-C) and primary human atrocities (FIGS. 31D-E) were treated with Indazol-Estrogen-Bromide (Br), Indazol-Estrogen-Chloride (Cl), 17β-Estradiol (E2) or vehicle (ethanol:EtOH) for 1 hour followed by […] LPS stimulation for 6 hours (black column: 6 hr) or no LPS treatment (white column: Ohr). Normalized mRNA expression against HPRT of IL1β (FIG. 31A), IL23p19 (FIG. 31B), TGFβ (FIG. 31C) in microglia cells and BAFF (FIG. 31D), IL23p19 (FIG. 31E), iNOS (FIG. 31F) in astrocytes were determined using quantitative PCR. Primary human microglia and astrocytes were treated with 1 μM Indazol-Estrogen-Bromide (Br), 1 μM Indazol-Estrogen-Chloride (C1), 1 μM17β-Estradiol (E2) or vehicle (ethanol:EtOH) for 1 hour as a final concentration. Then microglia cells were stimulated with 0.1 μg/ml LPS and astrocytes were stimulated with 10 ng/ml IL1b for 6 hours. mRNA were purified and cDNA were generated by reverse transcriptase reaction. To determine the effect of ERβ-specific ligands in microglia and astrocytes-mediated inflammation, the activation of several genes induced by LPS in microglia or by IL1b in astrocytes were determined by QPCR normalized against HPRT.
A general note: In qPCR the cycle at which signal appears reflects the starting amount.

Experiment [4] concerns primary human microglia. Kind of experiment: qPCR of LPS-induced genes in primary human microglia. The class given is cell-based. As to conditions: 1 μM for 1 hour, then 0.1 μg/ml LPS 6 hours; qPCR normalized against HPRT. As for the experimental part:
as §1

Molecules are shown by their SMILES. “Also recorded” adds a separate entry of the source.

As to `COc1cc(C(C)=O)ccc1O` [apocynin], the “motor neuron survival (ChAT-positive cells)” value is on record as “restored motor neuron survival; also recorded: recovery of motor neuron survival” in experiment [1] and “rescued the motor neuron survival” in experiment [1] (listed as Apocynin). Also, in experiment [2], the “percentage of cells that were able to produce ROS (percentage of oxidation)” value (“percentage of cells that were able” below) was “decreased the percentage of cells that were able to produce ROS; also recorded: decreased the ROS production”.
Turning to `C[C@]12CC[C@@H]3c4ccc(O)cc4CC[C@H]3[C@@H]1CC[C@@H]2O` [Estradiol, 17β-Estradiol], in experiment [3], the “BAFF mRNA” value is “not”, the “IL23 (IL23p19) mRNA” value is reported as “not” and the “iNOS mRNA” value was “not”.
As to `Oc1ccc(C=Cc2cc(O)cc(O)c2)cc1` [resveratrol], the “percentage of cells that were able” value in experiment [2] was “did not seem to have a detectable effect”.
For the compound `Oc1ccc(-n2nc3ccc(O)cc3c2Cl)cc1` [Indazol-Cl], in experiment [4], the “TGFβ mRNA” value was “do not repress”, the “induction of IL1β mRNA” value was “repress” and the “induction of IL23 (IL23p19) mRNA” value is given as “repress”. Besides, in experiment [3], the “BAFF mRNA” value was “repress”, the “IL23 (IL23p19) mRNA” value is “repress” and the “iNOS mRNA” value is recorded as “repress”.
As for `Oc1ccc(-n2nc3ccc(O)cc3c2Br)cc1` [Indazol-Br], in experiment [4], the “TGFβ mRNA” value is on record as “do not repress”, the “induction of IL1β mRNA” value is recorded as “repress” and the “induction of IL23 (IL23p19) mRNA” value was “repress”. Besides, in experiment [3], the “BAFF mRNA” value is given as “repress”, the “IL23 (IL23p19) mRNA” value was “repress” and the “iNOS mRNA” value is on record as “repress”.
As for `O=c1cc(-c2ccc(O)c(O)c2)oc2cc(O)cc(O)c12` [luteolin], the “percentage of cells that were able” value in experiment [2] is “did not seem to have a detectable effect”.
Regarding `O=C(O)CCCCC1CCSS1` (stereo not drawn) [alpha-lipoic acid, alpha lipoic acid], the “percentage of cells that were able” value in experiment [2] is reported as “decreased the percentage of cells that were able to produce ROS”.
